Where only a bound is given, the exact number is not on record here.

For orientation: EC50 means the concentration needed to bring the measured effect to its halfway point. As usually defined, the CC50 is the concentration giving 50% cytotoxicity. A higher CC50 goes with better tolerance by the cells. A word on the melting point: it is the temperature of the solid-liquid transition.

Data set [1] concerns K1 culture-adapted P. falciparum strain. The data set is described as follows: Antiplasmodial evaluation, SYBR Green I fluorescence-based drug susceptibility test. In kind it is cell-based. To be noted: for EC50: Plasmodium falciparum, multi-resistant K1 strain of P. falciparum, 72 h incubation, three independent experiments, read-out: EC50 PfK1; for SI (selectivity index): from CC50 HepG2 and EC50 PfK1. The procedure: […]. Parasitemia was maintained daily between 1 and 3%. The P. falciparum drug susceptibility test was carried out by comparing quantities of DNA in treated and control cultures of parasite in human erythrocytes according to a SYBR Green I fluorescence-based method[19] using a 96-well fluorescence plate reader. Compounds previously dissolved in DMSO (final concentration less than 0.5% v/v) were incubated in a total assay volume of 200 μL (RPMI, 2% hematocrit and 0.4% parasitemia) for 72 h in a humidified atmosphere (10% O2 and 5% CO2) at 37 °C in 96-well flat bottom plates. Duplicate assays were performed for each sample. After incubation, plates were frozen at […] for 24 h. Then, the frozen plates were thawed for 1 h at 37 °C. Fifteen μL of each sample were transferred to 96-well flat bottom non-sterile black plates (Greiner Bio-one, Kremsmünster, Austria), already containing 15 μL of the SYBR Green I lysis buffer (2X SYBR Green I, 20 mM Tris base pH 7.5, 20 mM EDTA, 0.008% w/v saponin, 0.08% w/v Triton X-100). […] Plates were incubated for 15 min at 37 °C and then read on a TECAN Infinite F-200 spectrophotometer with excitation and emission wavelengths at 485 and 535 nm, respectively.

A short description of data set [2]: Cytotoxic evaluation, MTT assay. Type of data set: cell-based. The following applies: HepG2 cells, human HepG2 cell line, three independent experiments. Here is the method: The HepG2 cell line was maintained at 37 °C, 5% CO2, at 90% humidity in […] supplemented with 10% fetal bovine serum, 1% L-glutamine (200 mM), and penicillin (100 U per mL)/streptomycin (100 μg mL^−1) (complete RPMI medium). The cytotoxicity of the tested molecules on the HepG2 (hepatocarcinoma cell line purchased from ATCC, ref HB-8065) cell line was assessed according to the method of Mosmann[20] with slight modifications. Briefly, 5 × 10^3 cells in 100 μL of complete medium were inoculated into each well of 96-well plates and incubated at 37 °C in humidified 5% CO2. After 24 h incubation, 100 μL of medium with various product concentrations dissolved in DMSO (final concentration less than 0.5% v/v) were added and the plates were incubated for 72 h at 37 °C. Triplicate assays were performed for each sample. Each plate was then microscopically examined for possible precipitate formation before the medium was aspirated from the wells. Next, 100 μL of MTT (3-(4,5-dimethyl-2-thiazolyl)-2,5-diphenyl-2H-tetrazolium bromide) solution (0.5 mg mL^−1 in medium without FBS) was added to each well. Cells were incubated for 2 h at 37 °C. After this time, the MTT solution was removed and DMSO (100 μL) was added to dissolve the resulting blue formazan crystals. Plates were shaken vigorously (700 rpm) for 10 min. The absorbance was measured at 570 nm with 630 nm as a reference wavelength using a BIO-TEK ELx808 Absorbance Microplate Reader (LabX, Midland, ON, Canada). DMSO was used as a blank and doxorubicin (purchased from Sigma Aldrich) as a positive control. Cell viability was calculated as a percentage of control (cells incubated without the compound). […] CC50 values to represent the mean value calculated from three independent experiments.
(Tetrazolium assays rely on reduction of a dye to a coloured formazan, in cell work by metabolically active cells.)

For the compound `CC(C)(C)Nc1nc2cc(Br)sc2c(=O)[nH]1` [Compound 1, 6-Bromo-2-(tert-butylamino)thieno[3,2-d]pyrimidin-4(3H)-one], in data set [1], the EC50 worked out at 43.2 ± 2.6 µM and the “SI (selectivity index)” value came out at 0.9. The compound further returned a CC50 at 72 h in data set [2] of 38.2 ± 3.5 µM.

For `Cc1ccc(Nc2cc3nc(NC(C)(C)C)[nH]c(=O)c3s2)cc1` [Compound 1a, 2-tert-Butylamino-6-[(4-methylphenyl)amino]thieno[3,2-d]pyrimidin-4(3H)-one], in data set [1], the EC50 is 10.3 ± 0.2 µM. For the same compound, the CC50 at 72 h in data set [2] was 21.7 ± 2.1 µM.

`Cc1cccc(Nc2cc3nc(NC(C)(C)C)[nH]c(=O)c3s2)c1` [Compound 1b, 2-tert-Butylamino-6-[(3-methylphenyl)amino]thieno[3,2-d]pyrimidin-4(3H)-one]: the EC50 in data set [1] worked out at 1.1 ± 0.3 µM. In data set [2], this compound showed a CC50 at 72 h of 5.3 ± 0.4 µM.

`Cc1ccccc1Nc1cc2nc(NC(C)(C)C)[nH]c(=O)c2s1` [Compound 1c, 2-tert-Butylamino-6-[(2-methylphenyl)amino]thieno[3,2-d]pyrimidin-4(3H)-one]: the EC50 in data set [1] was determined as 4.3 ± 0.2 µM. In data set [2], this compound displayed a CC50 at 72 h of 14.1 ± 0.3 µM.

`COc1ccc(Nc2cc3nc(NC(C)(C)C)[nH]c(=O)c3s2)cc1` [Compound 1d, 2-tert-Butylamino-6-[(4-methoxyphenyl)amino]thieno[3,2-d]pyrimidin-4(3H)-one] returned a melting point of 205 to 207 °C. In addition, in data set [1], the EC50 is 7.2 ± 2 µM and the “SI (selectivity index)” value was 3.3. The CC50 at 72 h in data set [2] came to 24 ± 3.1 µM.

As for `CC(C)(C)Nc1nc2cc(Nc3ccc(F)cc3)sc2c(=O)[nH]1` [Compound 1e, 2-tert-Butylamino-6-[(4-fluorophenyl)amino]thieno[3,2-d]pyrimidin-4(3H)-one], the melting point fell in the range of 195 to 197 °C. Further, in data set [1], the EC50 is 7.1 ± 1.4 µM and the “SI (selectivity index)” value worked out at 3.0. Besides, in data set [2], the CC50 at 72 h stood at 21.3 ± 1.6 µM.

Turning to `CC(C)(C)Nc1nc2cc(N3CCOCC3)sc2c(=O)[nH]1` [Compound 1f, 2-tert-Butylamino-6-(morpholin-4-yl)thieno[3,2-d]pyrimidin-4(3H)-one], the melting point lay in the range of 264 to 266 °C. In data set [1], the EC50 worked out at 4.5 ± 1.1 µM and the “SI (selectivity index)” value is listed as greater than 11.1. Also, in data set [2], the CC50 at 72 h is greater than 50 µM.

Compound `Cc1ccc(C#Cc2cc3nc(NC(C)(C)C)[nH]c(=O)c3s2)cc1` [Compound 2b, 2-tert-Butylamino-6-[(4-methylphenyl)ethynyl]thieno[3,2-d]pyrimidin-4(3H)-one] had a melting point of 235 to 237 °C. Further, in data set [1], the concentration for a half-maximal effect (EC50) is 2.35 ± 0.38 µM and the “SI (selectivity index)” value is greater than 5.3. Further, the CC50 at 72 h in data set [2] is greater than 12.5 µM.

With `Cc1ccc(C#Cc2cc3nc(NC(C)C)[nH]c(=O)c3s2)cc1` [Compound 2c, 6-[(4-methylphenyl)ethynyl]-2-(propan-2-ylamino)thieno[3,2-d]pyrimidin-4(3H)-one], the melting point lay within 277 to 279 °C. Besides, in data set [1], the EC50 amounted to 4.6 ± 1 µM and the “SI (selectivity index)” value is 0.7. In data set [2], it took 3.1 ± 0.6 µM to reach half-maximal cytotoxicity (CC50 at 72 h).

On to `CC(C)(C)Nc1nc2cc(C#CCCO)sc2c(=O)[nH]1` [Compound 2d, 2-tert-Butylamino-6-(4-hydroxybut-1-yn-1-yl)thieno[3,2-d]pyrimidin-4(3H)-one], for which the EC50 in data set [1] is greater than 10 µM. For the same compound, the CC50 at 72 h in data set [2] was greater than 50 µM.

In the case of `CC(C)(C)Nc1nc2cc(C#CC3CC3)sc2c(=O)[nH]1` [Compound 2e, 2-tert-Butylamino-6-(cyclopropylethynyl)thieno[3,2-d]pyrimidin-4(3H)-one], the melting point was 158 to 160 °C. Moreover, in data set [1], the concentration for a half-maximal effect (EC50) came out at 1.9 ± 0.6 µM and the “SI (selectivity index)” value was determined as 10.9. Moreover, the midpoint of cytotoxicity in data set [2], the CC50 at 72 h, lay at 20.8 ± 1.4 µM.

On to `C#Cc1cc2nc(NC(C)(C)C)[nH]c(=O)c2s1` [Compound 2f, 2-tert-Butylamino-6-ethynylthieno[3,2-d]pyrimidin-4(3H)-one], for which the half-maximal effective concentration (EC50) in data set [1] is greater than 12.5 µM. The compound further displayed a CC50 at 72 h in data set [2] of 4.7 ± 1 µM.

As to `CN1CCN(CC#Cc2cc3nc(NC(C)(C)C)[nH]c(=O)c3s2)CC1` [Compound 2g, 2-tert-Butylamino-6-[3-(4-methylpiperazin-1-yl)prop-1-yn-1-yl]thieno[3,2-d]pyrimidin-4(3H)-one], in data set [1], the EC50 is greater than 5 µM. The compound also gave a CC50 at 72 h in data set [2] of 41.6 ± 5.2 µM.

As to `CC(C)Nc1nc2cc(C#Cc3ccccc3)sc2c(=O)[nH]1` [Compound 2h, 6-(phenylethynyl)-2-(propan-2-ylamino)thieno[3,2-d]pyrimidin-4(3H)-one], the melting point fell in the range of 276 to 278 °C. In data set [1], the EC50 stood at 2.8 ± 1 µM and the “SI (selectivity index)” value was greater than 4.5. Also, in data set [2], the CC50 at 72 h is greater than 12.5 µM.

On to `CC(C)Nc1nc2cc(Br)sc2c(=O)[nH]1` [Compound 3, 6-Bromo-2-(propan-2-ylamino)thieno[3,2-d]pyrimidin-4(3H)-one], for which the melting point is 240 to 242 °C. In data set [1], the EC50 is greater than 50 µM and the “SI (selectivity index)” value was less than 1.8. This compound had a 50% cytotoxic concentration (CC50) at 72 h in data set [2] of 89.1 ± 9.7 µM.

As for `COC(=O)c1ccc(-c2cc3nc(NC(C)(C)C)[nH]c(=O)c3s2)cc1` [Compound 4a, Methyl-4-(2-tert-butylamino-4-oxo-3,4-dihydrothieno[3,2-d]pyrimidin-6-yl)benzoate], the melting point is greater than 300 °C. In addition, in data set [1], the EC50 turned out to be 2.5 ± 0.9 µM and the “SI (selectivity index)” value is greater than 5.0. Further, in data set [2], the CC50 at 72 h was greater than 12.5 µM.

On to `CC(C)(C)Nc1nc2cc(-c3ccc([N+](=O)[O-])cc3)sc2c(=O)[nH]1` [Compound 4b, 2-tert-Butylamino-6-(4-nitrophenyl)thieno[3,2-d]pyrimidin-4(3H)-one], for which the melting point was greater than 300 °C.

In the case of `CC(C)(C)Nc1nc2cc(-c3ccc(O)cc3)sc2c(=O)[nH]1` [Compound 4d, 2-(tert-butylamino)-6-(4-hydroxyphenyl)thieno[3,2-d]pyrimidin-4(3H)-one], the concentration giving a half-maximal response (EC50) in data set [1] amounted to 7.5 ± 1 µM. Also, in data set [2], the midpoint of cytotoxicity, the CC50 at 72 h, lay at 12.2 ± 0.3 µM.

Regarding `CC(C)(C)Nc1nc2cc(-c3ccc(F)c(Cl)c3)sc2c(=O)[nH]1` [Compound 4e, 2-tert-Butylamino-6-(3-chloro-4-fluorophenyl)thieno[3,2-d]pyrimidin-4(3H)-one], the melting point is 259 to 261 °C. Also, in data set [1], the half-maximal effective concentration (EC50) amounted to 2 ± 0.9 µM and the “SI (selectivity index)” value is given as greater than 6.3. In data set [2], this compound showed a CC50 at 72 h greater than 12.5 µM.

Compound `CC(C)Nc1nc2cc(-c3ccc(F)c(Cl)c3)sc2c(=O)[nH]1` [Compound 4f, 2-(Propan-2-ylamino)-6-(3-chloro-4-fluorophenyl)thieno[3,2-d]pyrimidin-4(3H)-one] registered a melting point greater than 300 °C. In data set [1], the EC50 was found to be 3.6 ± 1.2 µM and the “SI (selectivity index)” value is greater than 1.7. The same compound showed a CC50 at 72 h in data set [2] greater than 6.25 µM.

On to `CN1CCN(c2ccc(-c3cc4nc(NC(C)(C)C)[nH]c(=O)c4s3)cc2)CC1` [Compound 4h, 2-tert-Butylamino-6-[4-(4-methylpiperazin-1-yl)phenyl]thieno[3,2-d]pyrimidin-4(3H)-one], for which the EC50 in data set [1] was 4.1 ± 0.7 µM. The same compound registered a CC50 at 72 h in data set [2] of 5.8 ± 0.5 µM.

Take `CC(C)(C)Nc1nc2cc(-c3ccc(N4CCCCC4)cc3)sc2c(=O)[nH]1` [Compound 4i, 2-tert-Butylamino-6-[4-(piperidin-1-yl)phenyl]thieno[3,2-d]pyrimidin-4(3H)-one]: the EC50 in data set [1] was 4.1 ± 1.2 µM. The compound further showed a CC50 at 72 h in data set [2] greater than 6.25 µM.

Regarding `CC(C)(C)Nc1nc2cc(-c3ccc(S(C)(=O)=O)cc3)sc2c(=O)[nH]1` [Compound 4k, 2-tert-Butylamino-6-[4-(methylsulfonyl)phenyl]thieno[3,2-d]pyrimidin-4(3H)-one], the EC50 in data set [1] worked out at 3 ± 0.6 µM. The compound further had a CC50 at 72 h in data set [2] greater than 25 µM.

Take `CC(C)Nc1nc2cc(-c3ccc(N)cc3)sc2c(=O)[nH]1` [Compound 4q, 6-(4-aminophenyl)-2-(propan-2-ylamino)thieno[3,2-d]pyrimidin-4(3H)-one]: the EC50 in data set [1] came out at 6 ± 1.1 µM. This compound also showed a CC50 at 72 h in data set [2] of 11.3 ± 3.5 µM.

(Values after publication PMC9264115, “Pd-catalyzed C–C and C–N cross-coupling reactions in 2-aminothieno[3,2-d]pyrimidin-4(3H)-one series for antiplasmodial pharmacomodulation” (RSC Advances, 2022).)
